# Biological target: p300 HAT domain (residues 1287-1666) (Homo sapiens (Human), UniProt Q09472)
# Experiment: p300 HAT SPA assay (scintillation proximity assay, acetylation of biotinylated H3(1-21) peptide)
# Assay type: biochemical
# Conditions: p300 HAT domain; average of at least 2 replicate titrations; read-out: P300 HAT SPA IC50
# Method: In a typical experiment the p300 HAT inhibitory activity of the compounds described herein was determined in accordance with the following experimental method.
# The expressed protein was purified by Ni2+ affinity, followed by anion exchange chromatography. Appropriate fractions were pooled and buffer exchanged into 20 mM Hepes pH 7.5, 150 mM NaCl, and 1 mM TCEP.
# 35 μL of the reaction volume was transferred to a 384-well streptavidin FlashPlate (PerkinElmer) using a Bravo liquid handler (Velocity 11) and incubated for 1.5 hr at RT. […] Data were analyzed in Genedata to determine inhibitor IC50 values.
# p300 HAT domain (residues 1287-1666), sequence (Q09472 1287-1666): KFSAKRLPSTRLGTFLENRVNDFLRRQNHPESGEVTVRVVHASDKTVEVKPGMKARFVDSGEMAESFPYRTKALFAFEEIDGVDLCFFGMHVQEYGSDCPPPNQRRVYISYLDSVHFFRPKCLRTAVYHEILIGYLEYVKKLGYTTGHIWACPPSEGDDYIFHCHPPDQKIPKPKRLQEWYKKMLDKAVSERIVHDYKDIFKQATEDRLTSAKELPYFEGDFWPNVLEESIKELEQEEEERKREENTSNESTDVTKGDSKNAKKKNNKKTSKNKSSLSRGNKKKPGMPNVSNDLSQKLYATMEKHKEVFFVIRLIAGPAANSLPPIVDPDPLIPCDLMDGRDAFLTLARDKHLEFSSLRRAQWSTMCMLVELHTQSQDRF
row,IC50,Structure (SMILES)
1,747 nM,"CC(CNC(C(=O)c1cnn2cc(C(=O)NC[C@@H](C)O)ccc12)c1ccccc1)c1ccc(C#N)cc1 (single isomer, unassigned) [70 Isomer 3]"
2,21.8 nM,"CC(CNC(C(=O)c1cnn2cc(C(=O)NC[C@@H](C)O)ccc12)c1ccccc1)c1ccc(C#N)cc1 (single isomer, unassigned) [70 Isomer 4]"
3,> 2000 nM,"CCNC(=O)c1ccc2c(C(=O)C(NCCc3ccc(C#N)cc3Cl)c3ccccc3)c[nH]c2c1 (single isomer, unassigned) [71 Isomer 1]"
4,17.7 nM,"CCNC(=O)c1ccc2c(C(=O)C(NCCc3ccc(C#N)cc3Cl)c3ccccc3)c[nH]c2c1 (single isomer, unassigned) [71 Isomer 2]"
5,733 nM,"Cn1cc(-c2ccc3c(C(=O)C(NCCc4ccc(C#N)cc4Cl)c4ccccc4)c[nH]c3c2)cn1 (single isomer, unassigned) [72 Isomer 1]"
6,42.4 nM,"Cn1cc(-c2ccc3c(C(=O)C(NCCc4ccc(C#N)cc4Cl)c4ccccc4)c[nH]c3c2)cn1 (single isomer, unassigned) [72 Isomer 2]"
7,286 nM,"CCNC(=O)c1ccc2c(C(=O)C(NCCc3ccc(C#N)cc3)c3ccccc3)cnn2c1 (single isomer, unassigned) [73 Isomer 1]"
8,954 nM,"CCNC(=O)c1ccc2c(C(=O)C(NCCc3ccc(C#N)cc3)c3ccccc3)cnn2c1 (single isomer, unassigned) [73 Isomer 2]"
9,154 nM,"O=C(c1c[nH]c2cc(N3CCCC3=O)ccc12)C(NCCc1ccc(Cl)cc1)c1ccccc1 (single isomer, unassigned) [74 Isomer 1]"
10,160 nM,"O=C(c1c[nH]c2cc(N3CCCC3=O)ccc12)C(NCCc1ccc(Cl)cc1)c1ccccc1 (single isomer, unassigned) [74 Isomer 2]"
11,718 nM,"CCNC(=O)c1ccc2c(C(=O)C(NCC(C)c3ccc(C#N)cc3)c3ccccc3)c[nH]c2c1 (single isomer, unassigned) [75 Isomer 1]"
12,343 nM,"CCNC(=O)c1ccc2c(C(=O)C(NCC(C)c3ccc(C#N)cc3)c3ccccc3)c[nH]c2c1 (single isomer, unassigned) [75 Isomer 2]"
13,447 nM,"CCNC(=O)c1ccc2c(C(=O)C(NCC(C)c3ccc(C#N)cc3)c3ccccc3)c[nH]c2c1 (single isomer, unassigned) [75 Isomer 3]"
14,> 5000 nM,"CCNC(=O)c1ccc2c(C(=O)C(C)NCCc3ccc(C#N)cc3)c[nH]c2c1 (single isomer, unassigned) [76 Isomer 1]"
15,> 5000 nM,"CCNC(=O)c1ccc2c(C(=O)C(C)NCCc3ccc(C#N)cc3)c[nH]c2c1 (single isomer, unassigned) [76 Isomer 2]"
16,12900 nM,"Cn1cc(-c2ccc3c(C(=O)C(NCCc4ccc(F)cc4)c4ccccc4)c[nH]c3c2)cn1 (single isomer, unassigned) [78 Isomer 1]"
17,2480 nM,"COc1ccc(CCNC(C(=O)c2c[nH]c3c(C)cccc23)c2ccccc2)cc1 (single isomer, unassigned) [80 Isomer 1]"
18,12300 nM,"O=C(c1c[nH]c2cc(-c3cccnc3)ccc12)C(NCCc1ccc(F)cc1)c1ccccc1 (single isomer, unassigned) [81 Isomer 1]"
19,1310 nM,"Cn1cc(-c2ccc3c(C(=O)C(NCCc4ccc(Cl)cc4)c4ccccc4)c[nH]c3c2)cn1 (single isomer, unassigned) [83 Isomer 1]"
20,> 30000 nM,"Cn1cc(-c2ccc3c(C(=O)C(NCCc4ccc(F)cc4F)c4ccccc4)c[nH]c3c2)cn1 (single isomer, unassigned) [85 Isomer 1]"
21,28100 nM,"CCn1cc(-c2ccc3c(C(=O)C(NCCc4ccc(Cl)cc4)c4ccccc4)c[nH]c3c2)cn1 (single isomer, unassigned) [86 Isomer 1]"
22,1390 nM,"CNC(=O)Cn1cc(-c2ccc3c(C(=O)C(NCCc4ccc(Cl)cc4)c4ccccc4)c[nH]c3c2)cn1 (single isomer, unassigned) [87 Isomer 1]"
23,> 30000 nM,"Cc1ccc(-c2ccc3c(C(=O)C(NCCc4ccc(Cl)cc4)c4ccccc4)c[nH]c3c2)cn1 (single isomer, unassigned) [88 Isomer 1]"
24,27200 nM,"O=C(c1c[nH]c2cc(-c3ccncc3)ccc12)C(NCCc1ccc(Cl)cc1)c1ccccc1 (single isomer, unassigned) [89 Isomer 1]"
25,966 nM,"O=C(c1c[nH]c2cc(-c3ccncc3)ccc12)C(NCCc1ccc(Cl)cc1)c1ccccc1 (single isomer, unassigned) [89 Isomer 2]"
26,967 nM,"O=C(c1c[nH]c2cc(-c3cccnc3)ccc12)C(NCCc1ccc(Cl)cc1)c1ccccc1 (single isomer, unassigned) [90 Isomer 1]"
27,3730 nM,"CC(CNC(C(=O)c1c[nH]c2cc(-c3cnn(C)c3)ccc12)c1ccccc1)c1ccc(Cl)cc1 (single isomer, unassigned) [91 Isomer 1]"

row,IC50,Structure (SMILES)
1,> 30000 nM,"CC(CNC(C(=O)c1c[nH]c2cc(-c3cnn(C)c3)ccc12)c1ccccc1)c1ccc(Cl)cc1 (single isomer, unassigned) [91 Isomer 2]"
2,6440 nM,"CC(CNC(C(=O)c1c[nH]c2cc(-c3cnn(C)c3)ccc12)c1ccccc1)c1ccc(Cl)cc1 (single isomer, unassigned) [91 Isomer 3]"
3,134 nM,"CC(CNC(C(=O)c1c[nH]c2cc(-c3cnn(C)c3)ccc12)c1ccccc1)c1ccc(Cl)cc1 (single isomer, unassigned) [91 Isomer 4]"
4,2100 nM,"CC(Cc1ccc(Cl)cc1)NC(C(=O)c1c[nH]c2cc(-c3cnn(C)c3)ccc12)c1ccccc1 (single isomer, unassigned) [92 Isomer 1]"
5,> 30000 nM,"CC(Cc1ccc(Cl)cc1)NC(C(=O)c1c[nH]c2cc(-c3cnn(C)c3)ccc12)c1ccccc1 (single isomer, unassigned) [92 Isomer 2]"
6,2220 nM,"CC(Cc1ccc(Cl)cc1)NC(C(=O)c1c[nH]c2cc(-c3cnn(C)c3)ccc12)c1ccccc1 (single isomer, unassigned) [92 Isomer 4]"
7,816 nM,"N#Cc1ccc(CCNC(C(=O)c2c[nH]c3cc(-c4cnn(CCO)c4)ccc23)c2ccccc2)cc1 (single isomer, unassigned) [95 Isomer 1]"
8,182 nM,"COCCn1cc(-c2ccc3c(C(=O)C(NCCc4ccc(C#N)cc4)c4ccccc4)c[nH]c3c2)cn1 (single isomer, unassigned) [96 Isomer 1]"
9,493 nM,"N#Cc1ccc(CCNC(C(=O)c2c[nH]c3cc(-c4cn[nH]c4)ccc23)c2ccccc2)cc1 (single isomer, unassigned) [98 Isomer 1]"
10,212 nM,"N#Cc1ccc(CCNC(C(=O)c2cnn3cc(-c4cn[nH]c4)ccc23)c2ccccc2)cc1 (single isomer, unassigned) [99 Isomer 1]"
11,166 nM,"Cn1cc(-c2ccc3c(C(=O)C(NCCc4ccc(S(N)(=O)=O)cc4)c4ccccc4)cnn3c2)cn1 (single isomer, unassigned) [101 Isomer 1]"
12,1880 nM,"CC(CNC(C(=O)c1cnn2cc(-c3cnn(C)c3)ccc12)c1ccccc1)c1ccc(C#N)cc1 (single isomer, unassigned) [102 Isomer 1]"
13,239 nM,"CC(CNC(C(=O)c1cnn2cc(-c3cnn(C)c3)ccc12)c1ccccc1)c1ccc(C#N)cc1 (single isomer, unassigned) [102 Isomer 2]"
14,212 nM,"CC(CNC(C(=O)c1cnn2cc(-c3cnn(C)c3)ccc12)c1ccccc1)c1ccc(C#N)cc1 (single isomer, unassigned) [102 Isomer 3]"
15,3410 nM,"Cn1cc(-c2ccc3c(C(=O)C(NCCc4ccc(C#N)cc4)c4ccccc4)c[nH]c3c2F)cn1 (single isomer, unassigned) [103 Isomer 1]"
16,> 5000 nM,"Cn1cc(-c2ccc3c(C(=O)C(NCCc4ccc(Cl)cc4)c4ccccc4)c[nH]c3c2)nn1 (single isomer, unassigned) [104 Isomer 1]"
17,388 nM,"Cn1cc(-c2ccc3c(C(=O)C(NCCc4ccc(Cl)cc4)c4ccccc4)c[nH]c3c2)nn1 (single isomer, unassigned) [104 Isomer 2]"
18,> 30000 nM,"O=C(c1c[nH]c2cc(-c3ccccn3)ccc12)C(NCCc1ccc(F)cc1)c1ccccc1 (single isomer, unassigned) [105 Isomer 1]"
19,755 nM,"Cn1cnc(-c2ccc3c(C(=O)C(NCCc4ccc(Cl)cc4)c4ccccc4)c[nH]c3c2)c1 (single isomer, unassigned) [106 Isomer 1]"
20,283 nM,"Cn1cnc(-c2ccc3c(C(=O)C(NCCc4ccc(Cl)cc4)c4ccccc4)c[nH]c3c2)c1 (single isomer, unassigned) [106 Isomer 2]"
21,1900 nM,"Cc1nnc(-c2ccc3c(C(=O)C(NCCc4ccc(Cl)cc4)c4ccccc4)c[nH]c3c2)o1 (single isomer, unassigned) [107 Isomer 1]"
22,3280 nM,"Cc1nnc(-c2ccc3c(C(=O)C(NCCc4ccc(Cl)cc4)c4ccccc4)c[nH]c3c2)o1 (single isomer, unassigned) [107 Isomer 2]"
23,2640 nM,"O=C(c1c[nH]c2cc(-c3ccccn3)ccc12)C(NCCc1ccc(Cl)cc1)c1ccccc1 (single isomer, unassigned) [108 Isomer 2]"
24,2660 nM,"Cc1cnc(-c2ccc3c(C(=O)C(NCCc4ccc(Cl)cc4)c4ccccc4)c[nH]c3c2)[nH]1 (single isomer, unassigned) [109 Isomer 1]"
25,2010 nM,"Cc1ncc(-c2ccc3c(C(=O)C(NCCc4ccc(Cl)cc4)c4ccccc4)c[nH]c3c2)[nH]1 (single isomer, unassigned) [110 Isomer 1]"
26,1150 nM,"O=C(c1c[nH]c2cc(-c3ccncn3)ccc12)C(NCCc1ccc(Cl)cc1)c1ccccc1 (single isomer, unassigned) [111 Isomer 1]"
27,556 nM,"O=C(c1c[nH]c2cc(-c3ccncn3)ccc12)C(NCCc1ccc(Cl)cc1)c1ccccc1 (single isomer, unassigned) [111 Isomer 2]"
